Literature values as cited in patent publication US20070287647A1, “Nail Polish Remover” (priority 2006, published 2007).

Conditions: in vapor

In the case of CC#N [acetonitrile], the inhalation toxicity level is given as “about 60 ppm”.
